Tested on: CD1 female mouse brain lipidome
Test: Brain-region lipid levels (HPLC/MS/MS lipidomics) 2 h after single i.p. 3 mg/kg CP 55,940 vs vehicle
Type: in vivo
Description: The Bloomington Institutional Animal Care and Use Committee of Indiana University reviewed and approved the animal procedures. Female mice from the CD1 strain were utilized to match our study examining THC’s effects on the brain lipidome ([Leishman et al., 2018]). Mice were given a single i.p. injection of either 3 mg/kg CP or 1:1:18 cremophor:ethanol:saline vehicle (please refer to the section “3 mg/kg CP Is Relevant for Synthetic Cannabinoid Abuse and Has Stronger Effects on the Female Mouse Brain Lipidome During Adolescence” for a justification of dose and use of female mice). Three different age groups were given injections: PND 35 and PND 50 adolescents, and adult mice (PND 113). At least eight mice in each age group received CP and at least eight received vehicle. Matching the THC study time course ([Leishman et al., 2018]), mice were sacrificed via rapid decapitation 2 h after injection. Brains were immediately removed and flash-frozen in liquid nitrogen, and then stored at -80°C until dissections were performed. Brains were dissected on an ice-cold dissection plate into the following regions: STR, HIPP, CER, THAL, CTX, HYP, MID, and STEM. These abbreviations for these brain areas will be used exclusively when discussing the results generated by these specific dissections. Each dissected area was immediately placed in liquid nitrogen and then stored at -80°C until used for lipid extraction.
Tissue extracts were performed as previously described ([Bradshaw et al., 2006]; [Stuart et al., 2013]; [Raboune et al., 2014]; [Leishman et al., 2016a],[b], [2017], [2018]). First, samples were shock frozen in liquid nitrogen, weighed, and transferred to a centrifuge tube. The mass of the largest sample was multiplied by 50 to determine how many milliliters of HPLC-grade methanol (Fisher, Fair Lawn, NJ, United States) to add. Then, samples were spiked with 500 pmol deuterium-labeled NAGly (d8NAGly; Cayman Chemical, Ann Arbor, MI, United States). Samples were placed on ice in darkness for 2 h then individually homogenized and centrifuged at 19,000 × g for 20 min at 20°C. Supernatants were diluted with HPLC water (purified in house) to make a solution of 75% water, 25% supernatant. Lipids were partially purified on C18 solid phase extraction columns (Agilent, Palo Alto, CA, United States). A series of four elutions with 1.5 mL of 60%, 75%, 85%, and 100% methanol were collected ([Stuart et al., 2013]; [Leishman et al., 2016a],[b], [2018]).
As previously described ([Bradshaw et al., 2006]; [Tan et al., 2006]; [Smoum et al., 2010]; [Stuart et al., 2013]; [Tortoriello et al., 2013]; [Raboune et al., 2014]; [Leishman et al., 2016a],[b], [2017], [2018]), samples were analyzed using an Applied Biosystems API 3000 triple quadrupole mass spectrometer with electrospray ionization (Foster City, CA, United States). Using an Agilent XDB-C18 reversed phase analytical column and optimized mobile phase gradients, 20 μL from each elution were chromatographed. Two Shimadzu 10ADvp pumps (Columbia, MD, United States) provided the pressure for gradient elution. Mobile phase A: 20% methanol, 80% water (v/v) and 1 mM ammonium acetate (Sigma, St. Louis, MO, United States). Mobile phase B: 100% methanol, 1 mM ammonium acetate. Every method run began with 0% mobile phase B, reached 100% mobile phase B flowing at 0.2 mL/min, and gradually returned to 0% mobile phase B.
This screening library will be referred to as the lipidome when discussing data from this study. HPLC/MS/MS data were analyzed using Analyst software (Applied Biosystems) ([Bradshaw et al., 2006]; [Tan et al., 2006]; [Stuart et al., 2013]; [Tortoriello et al., 2013]; [Raboune et al., 2014]; [Leishman et al., 2016a],[b], [2017], [2018]). Chromatograms (Supplementary Figure 3) were generated by determining the retention time of analytes from the analytical column with a [M-1] or [M+1] parent peak and a fragmentation peak corresponding to the programmed values. […]

CCCCCCC(C)(C)c1ccc([C@@H]2C[C@H](O)CC[C@H]2CCCO)c(O)c1 [CP 55,940]
N-stearoyl leucine mean level (PND 35 striatum): 9.98E-13 moles per gram
N-stearoyl methionine mean level (PND 35 striatum): 1.31E-12 moles per gram
N-stearoyl phenylalanine mean level (PND 35 striatum): 1.28E-12 moles per gram
N-stearoyl serine mean level (PND 35 striatum): 1.89E-11 moles per gram
N-stearoyl tryptophan mean level (PND 35 striatum): 5.77E-13 moles per gram
Oleic acid mean level (PND 35 striatum): 1.18E-09 moles per gram
PGE2 mean level (PND 35 striatum): 3.74E-10 moles per gram
PGF2α mean level (PND 35 striatum): 2.8E-10 moles per gram
PhosphoLEA mean level (PND 35 striatum): 1.91E-11 moles per gram
total changes in lipid levels across the eight regions (PND 50): 141
changes in lipid levels that were decreases (PND 50, eight regions): 110
2-linoleoyl glycerol level vs vehicle (PND 50 CER): ↓↓ (1.50-1.99 times lower than vehicle)
2-oleoyl glycerol level vs vehicle (PND 50 CER): ↓ (1-1.49 times lower than vehicle)
2-palmitoyl glycerol level vs vehicle (PND 50 CER): ↓ (1-1.49 times lower than vehicle)
6-ketoPGF1α level vs vehicle (PND 50 CER): ↑ (1-1.49 times higher than vehicle)
Arachidonic acid level vs vehicle (PND 50 CER): ↓ (1-1.49 times lower than vehicle)
Linoleic acid level vs vehicle (PND 50 CER): ↓ (1-1.49 times lower than vehicle)
N-arachidonoyl GABA level vs vehicle (PND 50 CER): ↓ (1-1.49 times lower than vehicle)
N-arachidonoyl ethanolamine level vs vehicle (PND 50 CER): ↓ (1-1.49 times lower than vehicle)
N-arachidonoyl glycine level vs vehicle (PND 50 CER): ↓ (1-1.49 times lower than vehicle)
N-arachidonoyl phenylalanine level vs vehicle (PND 50 CER): ↓↓ (1.50-1.99 times lower than vehicle)
N-arachidonoyl serine level vs vehicle (PND 50 CER): ↓ (1-1.49 times lower than vehicle)
N-arachidonoyl taurine level vs vehicle (PND 50 CER): ↓ (1-1.49 times lower than vehicle)
N-arachidonoyl tyrosine level vs vehicle (PND 50 CER): ↓ (1-1.49 times lower than vehicle)
N-docosahexaenoyl phenylalanine level vs vehicle (PND 50 CER): ↓ (1-1.49 times lower than vehicle)
N-linoleoyl ethanolamine level vs vehicle (PND 50 CER): ↓ (1-1.49 times lower than vehicle)
N-oleoyl GABA level vs vehicle (PND 50 CER): ↓ (1-1.49 times lower than vehicle)
N-oleoyl ethanolamine level vs vehicle (PND 50 CER): ↓ (1-1.49 times lower than vehicle)
N-oleoyl phenylalanine level vs vehicle (PND 50 CER): ↑ (1-1.49 times higher than vehicle)
N-palmitoyl leucine level vs vehicle (PND 50 CER): ↑↑ (1.50-1.99 times higher than vehicle)
N-palmitoyl valine level vs vehicle (PND 50 CER): ↑ (1-1.49 times higher than vehicle)
Oleic Acid level vs vehicle (PND 50 CER): ↓ (1-1.49 times lower than vehicle)
PGE2 level vs vehicle (PND 50 CER): ↓ (1-1.49 times lower than vehicle)
PGF2α level vs vehicle (PND 50 CER): ↓ (1-1.49 times lower than vehicle)
2-linoleoyl glycerol level vs vehicle (PND 50 CTX): ↓ (1-1.49 times lower than vehicle)
2-oleoyl glycerol level vs vehicle (PND 50 CTX): ↓ (1-1.49 times lower than vehicle)
Arachidonic acid level vs vehicle (PND 50 CTX): ↓ (1-1.49 times lower than vehicle)
Linoleic acid level vs vehicle (PND 50 CTX): ↓↓ (1.50-1.99 times lower than vehicle)
N- stearoyl valine level vs vehicle (PND 50 CTX): ↑ (1-1.49 times higher than vehicle)
N-arachidonoyl GABA level vs vehicle (PND 50 CTX): ↓ (1-1.49 times lower than vehicle)
N-arachidonoyl alanine level vs vehicle (PND 50 CTX): ↓ (1-1.49 times lower than vehicle)
N-arachidonoyl ethanolamine level vs vehicle (PND 50 CTX): ↓ (1-1.49 times lower than vehicle)
N-arachidonoyl phenylalanine level vs vehicle (PND 50 CTX): ↓ (1-1.49 times lower than vehicle)
N-arachidonoyl taurine level vs vehicle (PND 50 CTX): ↓ (1-1.49 times lower than vehicle)
N-docosahexaenoyl ethanolamine level vs vehicle (PND 50 CTX): ↓ (1-1.49 times lower than vehicle)
N-linoleoyl ethanolamine level vs vehicle (PND 50 CTX): ↓ (1-1.49 times lower than vehicle)
N-oleoyl ethanolamine level vs vehicle (PND 50 CTX): ↓↓ (1.50-1.99 times lower than vehicle)
N-oleoyl serine level vs vehicle (PND 50 CTX): ↑ (1-1.49 times higher than vehicle)
N-palmitoyl leucine level vs vehicle (PND 50 CTX): ↑ (1-1.49 times higher than vehicle)
N-palmitoyl methionine level vs vehicle (PND 50 CTX): ↑ (1-1.49 times higher than vehicle)
N-palmitoyl phenylalanine level vs vehicle (PND 50 CTX): ↑ (1-1.49 times higher than vehicle)
N-palmitoyl tyrosine level vs vehicle (PND 50 CTX): ↑ (1-1.49 times higher than vehicle)
N-palmitoyl valine level vs vehicle (PND 50 CTX): ↑ (1-1.49 times higher than vehicle)
N-stearoyl phenylalanine level vs vehicle (PND 50 CTX): ↑ (1-1.49 times higher than vehicle)
PGE2 level vs vehicle (PND 50 CTX): ↓ (1-1.49 times lower than vehicle)
2-linoleoyl glycerol level vs vehicle (PND 50 HIPP): ↓ (1-1.49 times lower than vehicle)
6-ketoPGF1α level vs vehicle (PND 50 HIPP): ↑ (1-1.49 times higher than vehicle)
Linoleic acid level vs vehicle (PND 50 HIPP): ↓ (1-1.49 times lower than vehicle)
N-arachidonoyl alanine level vs vehicle (PND 50 HIPP): ↓ (1-1.49 times lower than vehicle)
N-arachidonoyl ethanolamine level vs vehicle (PND 50 HIPP): ↓↓ (1.50-1.99 times lower than vehicle)
N-arachidonoyl glycine level vs vehicle (PND 50 HIPP): ↓↓ (1.50-1.99 times lower than vehicle)
N-arachidonoyl serine level vs vehicle (PND 50 HIPP): ↓↓ (1.50-1.99 times lower than vehicle)
N-arachidonoyl taurine level vs vehicle (PND 50 HIPP): ↓ (1-1.49 times lower than vehicle)
N-arachidonoyl tyrosine level vs vehicle (PND 50 HIPP): ↑ (1-1.49 times higher than vehicle)
N-docosahexaenoyl ethanolamine level vs vehicle (PND 50 HIPP): ↓ (1-1.49 times lower than vehicle)
N-linoleoyl ethanolamine level vs vehicle (PND 50 HIPP): ↓↓ (1.50-1.99 times lower than vehicle)
N-linoleoyl serine level vs vehicle (PND 50 HIPP): ↑ (1-1.49 times higher than vehicle)
N-oleoyl leucine level vs vehicle (PND 50 HIPP): ↓ (1-1.49 times lower than vehicle)
N-oleoyl serine level vs vehicle (PND 50 HIPP): ↑ (1-1.49 times higher than vehicle)
PGE2 level vs vehicle (PND 50 HIPP): ↑ (1-1.49 times higher than vehicle)
PGF2α level vs vehicle (PND 50 HIPP): ↑ (1-1.49 times higher than vehicle)
2-arachidonoyl glycerol level vs vehicle (PND 50 HYP): ↓ (1-1.49 times lower than vehicle)
N-arachidonoyl phenylalanine level vs vehicle (PND 50 HYP): ↓ (1-1.49 times lower than vehicle)
N-palmitoyl leucine level vs vehicle (PND 50 HYP): ↑ (1-1.49 times higher than vehicle)
PGF2α level vs vehicle (PND 50 HYP): ↑ (1-1.49 times higher than vehicle)
number of lipids changed (PND 50 HYP, 49 detected): four
2-linoleoyl glycerol level vs vehicle (PND 50 MID): ↓ (1-1.49 times lower than vehicle)
2-oleoyl glycerol level vs vehicle (PND 50 MID): ↓ (1-1.49 times lower than vehicle)
6-ketoPGF1α level vs vehicle (PND 50 MID): ↓ (1-1.49 times lower than vehicle)
Linoleic acid level vs vehicle (PND 50 MID): ↓ (1-1.49 times lower than vehicle)
N-arachidonoyl GABA level vs vehicle (PND 50 MID): ↓ (1-1.49 times lower than vehicle)
N-arachidonoyl alanine level vs vehicle (PND 50 MID): ↓↓ (1.50-1.99 times lower than vehicle)
N-arachidonoyl ethanolamine level vs vehicle (PND 50 MID): ↓ (1-1.49 times lower than vehicle)
N-arachidonoyl glycine level vs vehicle (PND 50 MID): ↓↓ (1.50-1.99 times lower than vehicle)
N-arachidonoyl methionine level vs vehicle (PND 50 MID): ↓↓ (1.50-1.99 times lower than vehicle)
N-arachidonoyl phenylalanine level vs vehicle (PND 50 MID): ↓ (1-1.49 times lower than vehicle)
N-arachidonoyl tyrosine level vs vehicle (PND 50 MID): ↓ (1-1.49 times lower than vehicle)
N-docosahexaenoyl GABA level vs vehicle (PND 50 MID): ↓ (1-1.49 times lower than vehicle)
N-docosahexaenoyl ethanolamine level vs vehicle (PND 50 MID): ↓ (1-1.49 times lower than vehicle)
N-docosahexaenoyl leucine level vs vehicle (PND 50 MID): ↑ (1-1.49 times higher than vehicle)
N-linoleoyl ethanolamine level vs vehicle (PND 50 MID): ↓ (1-1.49 times lower than vehicle)
N-oleoyl ethanolamine level vs vehicle (PND 50 MID): ↓ (1-1.49 times lower than vehicle)
N-oleoyl methionine level vs vehicle (PND 50 MID): ↓↓ (1.50-1.99 times lower than vehicle)
N-palmitoyl alanine level vs vehicle (PND 50 MID): ↓ (1-1.49 times lower than vehicle)
N-palmitoyl ethanolamine level vs vehicle (PND 50 MID): ↓ (1-1.49 times lower than vehicle)
N-palmitoyl leucine level vs vehicle (PND 50 MID): ↑ (1-1.49 times higher than vehicle)
N-palmitoyl serine level vs vehicle (PND 50 MID): ↓ (1-1.49 times lower than vehicle)
N-stearoyl methionine level vs vehicle (PND 50 MID): ↓ (1-1.49 times lower than vehicle)
N-stearoyl phenylalanine level vs vehicle (PND 50 MID): ↓ (1-1.49 times lower than vehicle)
Oleic Acid level vs vehicle (PND 50 MID): ↓ (1-1.49 times lower than vehicle)
PGE2 level vs vehicle (PND 50 MID): ↓ (1-1.49 times lower than vehicle)
PGF2α level vs vehicle (PND 50 MID): ↓ (1-1.49 times lower than vehicle)
